These results are taken from PMC8227227 (Viruses, 2021).

Where two headings read alike, the source gives them in different places.

In assay [1] the target is T1, HIV-1 PR (Human immunodeficiency virus type 1 group M subtype B, UniProt P04585).
T1 construct: assayed as substrates of the HIV-1 protease (PR)
The following applies: values published previously, cited from earlier work.

Assay [2] addresses T1, HIV-1 PR. Put plainly: Enzyme assay with synthetic oligopeptide substrates (RP-HPLC). In kind it is biochemical, human immunodeficiency virus type 1 (HIV-1). Particulars: for Km / kcat: Table 3, revertant peptides, 37 °C, 1 h; for Km: 0.25 M potassium phosphate pH 5.6, 7.5% glycerol, 1 mM EDTA, 5 mM DTT, 2 M NaCl, RP-HPLC, Michaelis-Menten fit; for kcat: same buffer, peptides not cleaved at threshold given as estimated kcat < 0.01 s^−1; for kcat/Km: Table 3, specificity constant calculated from the Km and kcat values; for cleavability by HIV-1 PR: threshold estimated kcat < 0.01 s^−1.

On to “KIVKCFFCGK [peptide 2, P1′ substituted NC-1 decapeptide […]]”, for which, at HIV-1 PR [1] (Table 2), the Km is 20 µM, the kcat is listed as 0.900 ^1 s^−1 and the specificity constant (kcat/Km) is listed as 59.6 ^1 mM^−1 s^−1.
As for “KIVKCFGCGK [peptide 14, P1′ substituted NC-1 decapeptide […]]”, at HIV-1 PR [1] (Table 2), the Km is 1340 µM, the turnover number (kcat) was 0.002 ^1 s^−1 and the kcat/Km is given as 0.001 ^1 mM^−1 s^−1. Besides, on HIV-1 PR [1] (Table 3, repeated from Table 2), the Km is 1340 µM, the kcat was 0.002 s⁻¹ and the kcat/Km is 0.001 mM⁻¹ s⁻¹.
KIVKCFNCGK [peptide 1]: at HIV-1 PR [1] (Table 2), the Michaelis constant (Km) was 430 µM, the kcat is given as 0.017 ^1 s^−1 and the kcat/Km is 0.040 ^1 mM^−1 s^−1. At HIV-1 PR [1] (Table 3, repeated from Table 2), the Km was 430 µM, the turnover number (kcat) is 0.017 s⁻¹ and the specificity constant (kcat/Km) is 0.040 mM⁻¹ s⁻¹.
Consider “KIVKICFGCGKR [peptide 17, revertant NC-1 cleavage site peptide […]]”, for which, at HIV-1 PR [2], the Km was found to be 70 µM, the catalytic constant (kcat) was 0.025 s⁻¹ and the catalytic efficiency (kcat/Km) was 0.35 mM⁻¹ s⁻¹.
With “KIVTCFGCGK [peptide 15, revertant NC-1 cleavage site peptide […]]”, at HIV-1 PR [2], the turnover number (kcat) was <0.010 s⁻¹ and the “cleavability by HIV-1 PR” value is “did not yield a cleavable peptide”.
“RKIVICFGCGKR [peptide 16, revertant NC-1 cleavage site peptide […]]”: at HIV-1 PR [2], the Michaelis constant (Km) was found to be 35 µM, the kcat was 0.034 s⁻¹ and the kcat/Km is 0.97 ^5 mM^−1 s^−1.
Take “RKIVICFGCIKR [peptide 19, revertant NC-1 cleavage site peptide […]]”: at HIV-1 PR [2], the Km is < 10 µM and the turnover number (kcat) is 0.015 s⁻¹.
Consider “RKIVKCFGCIKR [peptide 18, revertant NC-1 cleavage site peptide […]]”, for which, on HIV-1 PR [2], the kcat is <0.010 s⁻¹ and the “cleavability by HIV-1 PR” value is listed as “did not provide a cleavable peptide”.
